Reference: PubChem BioAssay AID624407 (The Scripps Research Institute Molecular Screening Center, 2012)
Calls of active or inactive are those of the source. The rule behind the calls is not given here.

These compounds were tested on parental CHO-K1 cells, HTRF counterscreen (assay: nonspecific inhibition in untransfected CHO-K1 – cell-based, HTRF, dose response, counter-screen for OX1R antagonist project, late-stage follow-up (AID 624407)).

SMILES | IC50
Cc1cccc(C=NNC(=O)c2cc3c(s2)-c2ccccc2CC3)c1 | > 59.6 µM (inactive)
CN(N=Cc1cc([N+](=O)[O-])ccc1O)c1ccccc1 | > 59.6 µM (inactive)
Cc1c(NS(=O)(=O)c2cccc(C(=O)OCC(=O)N(C)C3CCCCC3)c2)c(=O)n(-c2ccccc2)n1C | > 59.6 µM (inactive)
CCn1c(SCC(=O)Nc2ccc3c(c2)c2ccccc2n3CC)nnc1-c1cnccn1 | > 59.6 µM (inactive)
O=C(CSc1ccc(-c2ccccc2)nn1)c1cccs1 | > 59.6 µM (inactive)
CCc1cc(C(=O)OCC(=O)N2CCC(c3ccccc3)=N2)sc1C | > 59.6 µM (inactive)
CCOc1ccccc1C(=O)Nc1ccc2nc3n(c(=O)c2c1)CCCCC3 | > 59.6 µM (inactive)
COc1ccc(OC)c(S(=O)(=O)NCC(c2ccco2)N2CCc3ccccc32)c1 (stereo unspecified) | > 59.6 µM (inactive)
CSc1cccc(NC(=O)C2CCCN2S(=O)(=O)c2ccc(Br)s2)c1 (stereo unspecified) | > 59.6 µM (inactive)
CSc1cccc(N2CC(C(=O)NCCN3C(=O)S/C(=C\c4cccnc4)C3=O)CC2=O)c1 (stereo unspecified) | 3.37 µM
Cc1cc(Cl)ccc1OCCCC(=O)NCCN1C(=O)S/C(=C\c2cccnc2)C1=O | 8.79 µM
Cc1ccccc1NC(=O)C1CCCN1S(=O)(=O)c1ccccc1C(F)(F)F (stereo unspecified) | > 59.6 µM (inactive)
Cc1ccc(-c2csc3nnc(SCC(=O)Nc4nsc(-c5ccccc5)n4)n23)cc1 | > 59.6 µM (inactive)
CCSC1=C(C#N)C(c2ccccc2Cl)C(C(=O)c2cccs2)C(O)(C(F)(F)F)N1 (stereo unspecified) | > 59.6 µM (inactive)
CC(=C/c1ccccc1)/C=C1/SC(N2CCOCC2)=NC1=O | 12.4 µM (inactive)
Cc1cccc(NC(=O)[C@@H]2CCCN2S(=O)(=O)c2ccc(Cl)cc2)c1 | > 59.6 µM (inactive)
COc1cccc(/C=C2/Oc3ccccc3N(CC(=O)NCC3CCCO3)C2=O)c1 (stereo unspecified) | > 59.6 µM (inactive)
COc1cc(OC)c(-c2nc3ccccc3s2)cc1OC | > 59.6 µM (inactive)
Cc1noc(C)c1COc1ccc(C(=O)OCC(=O)N2CC(=O)Nc3ccccc32)cc1 | > 59.6 µM (inactive)
Fc1cccc(Nc2nc3ccccc3n3cnnc23)c1 | > 59.6 µM (inactive)
CCc1cc2c(SCC(=O)N(CC)c3c(N)n(Cc4ccccc4)c(=O)[nH]c3=O)ncnc2s1 | > 59.6 µM (inactive)
CCOC(=O)N1CCN(C(=O)CSc2ccc(-c3ccccc3)nn2)CC1 | > 59.6 µM (inactive)
COCCCNC(=O)CCC(=O)NNc1nc2ccccc2c2nc(-c3ccccc3)nn12 | > 59.6 µM (inactive)
CCN(CC)c1ccc(NC(=O)Cn2c(C(C)NC(=O)c3ccccc3)nc3ccccc32)cc1 (stereo unspecified) | > 59.6 µM (inactive)
O=c1cc(CN2CC(O)Cc3ccc4ccccc4c32)nc2sccn12 (stereo unspecified) | > 59.6 µM (inactive)
O=C(CN1C(=O)/C(=C\c2cccc(Br)c2)Oc2ccccc21)NCC1CCCO1 (stereo unspecified) | > 59.6 µM (inactive)
